Experimental data taken from EP2386565A2, “Compounds and methods to inhibit or augment an inflammatory response” (Cambridge Enterprise Ltd., priority 1999, dated 2000).
Positions of bridges follow the written chain, without caps; N, C: chain ends. Non-standard residues stand in square brackets, D forms with d. Residues, ends and D or L forms follow the SMILES beside them.

What was measured:
[1] = tested on: antigen specific antibody recall response; test: Antigen (scFv) recall response, safety and serum levels after single i.v. dose; format: in vivo, Cynomolgus monkeys
Description: Cynomolgus monkeys were immunized with antigen that is a single chain Fv (scFv) protein. Each animal previously received 3 i.v. injections of the antigen and all developed high serum titers. Five animals were randomly divided into 2 groups. Two animals served as PBS treated controls and 3 were treated i.v. with 50 mg/kg CRD-Leu4Ile11Cys13 peptide 3(3-12)[MCP-1]. Thirty minutes following CRD-Leu4Ile11Cys13 peptide 3(3-12)[MCP-1] treatment all animals were challenged i.v. with 3.5 mg/kg antigen. In addition, animals were challenged intradermal with each of the following in a volume of 50 µl:PBS; 50 µg antigen; 5 µg antigen; 0.5 µg antigen; 500 ng MCP-1; or 50 ng LPS. Serum was collected at 10 minutes, 30 minutes, 60 minutes, 4 hours, and 24 hours. Animals were sacrificed 24 hours after CRD-Leu4Ile11Cys13peptide 3(3-12)[MCP-1] injection and complete necropsy performed and tissues fixed for histopathology. Fixed and frozen skin samples were harvested for histopathology and immunohistochemistry. Blood, spleen, and lymph node were harvested for assessment of cell function in migration assay, proliferation assay, and antigen specific antibody and cytokine recall. Blood was also analyzed pre- and post-CRD-Leu4Ile11Cys13 peptide 3(3-12)[MCP-1] injection for hematology parameters and serum chemistry. Serum levels were evaluated by an LC-MS method (limit of quantitation = 1 µg/ml) pre-treatment and then at 10 minutes, 30 minutes, 60 minutes, 4 hours and 20-24 hours after injection. Urinalysis was performed pre- and post-CRD-Leu4Ile11Cys13 peptide 3(3-12)[MCP-1] injection.

[2] = tested on: MCP-1- and LPS-induced dermal inflammation; test: Dermal inflammation model (intradermal MCP-1 / LPS); format: in vivo, rat; details: for MCP-1 induced recruitment of monocyte/macrophages in skin (in words): systemic treatment before intradermal MCP-1
Description: To assess the efficacy of an agent of the invention in the prevention of lipopolysaccharide (LPS)- and MCP-1-induced dermal inflammation in the rat, three different doses of CRD-Leu4Ile11Cys13peptide 3(3-12)[MCP-1] were administered. An inflammatory response was elicited by intradermal injection (ventral abdomen) of either 500 ng MCP-1 or 100 ng MCP-1 along with endotoxin-free phosphate-buffered saline vehicle (as a negative control) and bacterial lipopolysaccharide (LPS; as a positive control). Each substance was injected at a different site. The results obtained from animals were compared to CRD-Leu4Ile11Cys13 peptide 3(3-12)[MCP-1] treated, and PBS (diluent control) treated, animals. Thirty minutes prior to intradermal agonist administration, the animals received an intravenous loading dose (3, 30 or 300 mg) and a subcutaneous depot dose (0.1, 1 or 10 mg) (on dorsum) of the pan-chemokine inhibitor CRD-Leu4Ile11Cys13peptide 3(3-12)[MCP-1] (see, for example, Figure 12). Animals were sacrificed at 20-24 hours post injection. Serum and urine were collected. The intradermal sites of agonist injection were collected, bisected and the extent of the inflammatory response was assessed by histopathology and quantitative immunofluorescence (fixed and frozen) (for example, following MCP-1 injection, the number of monocyte/macrophages in the skin was determined using the anti-CD14 (MCA342 from Serotec; clone ED2) at 3 µg/ml overnight at 4°C. The second antibody was rat anti-mouse FITC (415-096-100 from Jackson ImmunoResearch) at 28 µg/ml for 6 hours at room temperature). In addition, toxicity of CRD-Leu4Ile11Cys13peptide 3(3-12)[MCP-1] was assessed by collection of the following tissue samples in 10% neutral buffered formalin for histologic analysis: lung, liver, kidney, spleen, thymus, heart, and antagonist (test agent) injection site.
Although MCP-1 is fairly specific as a monocyte/macrophage chemoattractant, dermal injection of LPS induces recruitment of a broader range of leukocytes, including T- and B-cells and neutrophils. Specific antibodies to rat B-cells (MCA 1432 from Serotec) were used at 10 µg/ml overnight at 4°C to determine whether CRD-Leu4Ile11Cys13 peptide 3(3-12)[MCP-1] affected the recruitment of this leukocyte subpopulation. Secondary antibody was anti-mouse FITC (415-096-100 from Jackson ImmunoResearch, as above).
(10 mg in 200 µl subcutaneous). Thirty minutes later, PBS, 50 ng LPS and 500 ng MCP-1 were injected into three separate sites on the ventral abdomen of each rat. Animals were sacrificed 24 hours later and the intradermal site was excised, and frozen in OCT embedding media. Five µm sections were collected from each rat intradermal site and stored at -20°C. The number of monocytes (anti-rat CD14, Serotec), T cells, neutrophils (anti-rat granulocytes, Harlan Seralab), B-lymphocytes (anti-rat B cells, Serotec), and MCP-1, IL-8, and TNF-α (anti-mouse TNF-α, R and D Systems) were measured. Eight test sections and two control sections were stained at each site for each animal through a distance of 2.5 mm. The median percentage area was determined for each animal and for each group using NIH image, as the largest variability of staining was between sections rather than in any one section.

[3] = 8.8 mg i.v. bolus

## CC[C@@H](C)[C@H]1NC(=O)[C@@H](CCC(N)=O)NC(=O)[C@H](N)CSSC[C@H](C(N)=O)NC(=O)[C@@H](CC(C)C)NC(=O)[C@@H](CC(=O)O)NC(=O)[C@H]2CCCN2C(=O)[C@@H](CCCCN)NC(=O)[C@@H](CCC(N)=O)NC(=O)[C@@H](CCCCN)NC(=O)[C@@H](Cc2c[nH]c3ccccc23)NC1=O (H-[dC][dQ][dI][dW][dK][dQ][dK][dP][dD][dL][dC]-NH2; disulfide 1-11)
[1]; 50 mg/kg i.v.
  hematology and serum chemistry (in words): No clinically significant changes
  period with detectable drug levels in serum after treatment: 4 h
[1]; single i.v. dose 50 mg/kg
  antigen specific antibody in recall responses of splenocytes, lymph node cells and PBL (in words): lowest detectable levels of antigen specific antibody
[2]; 10 mg subcutaneous, 50 ng LPS
  TNF-α, IL-8 and MCP-1 at the LPS intradermal site (in words): substantially reduced
  median percentage area stained for neutrophils, monocytes, CD4+ T lymphocytes and B-lymphocytes at the LPS site (in words): abolished
[2]; rat, in vivo
  recruitment of B-cells to the site of the LPS injection (in words): substantially inhibited
  reduction in the number of monocyte/macrophages recruited in response to injected bacterial LPS: > 80%
[2]
  MCP-1 induced recruitment of monocyte/macrophages in skin (in words): completely abolished
[2]; listed as CRD-Leu4Ile11Cys13peptide 3(3-12)
  MCP-1 induced recruitment of monocyte/macrophages in skin (in words): the inflammatory response is abolished
[3]
  time until serum concentrations decline below LLOQ (in words): within four hours
